Legend:
SARS-CoV-2 Omicron = assay: microbe, parasite or virus in culture; assay type: cell-based; conditions: Severe acute respiratory syndrome coronavirus 2, read-out: EC90 (mean ± SD)
in vitro [1] = conditions: human
in vitro [2] = conditions: human; remark: listed apart in the source
CatB and CatL = assay: Z-Phe-Arg-AMC substrate degradation in whole cell lysates with CA-074; assay type: biochemical; conditions: CA-074 10 μM

CCN(CCO)CCCC(C)Nc1ccnc2cc(Cl)ccc12 (stereo not shown) [Hydroxychloroquin, Hydroxychloroquine]
EC90 (SARS-CoV-2 Omicron): 7.7 ± 1.2 µM

O=[N+]([O-])c1ccc(O)c2ncccc12 [Nitroxoline, nitroxoline]
CC50 (in vitro [1]): > 100 µM
CC50 (in vitro [2]): > 100 µM
EC90 (SARS-CoV-2 Omicron): 6.4 ± 0.6 µM

CCCNC(=O)[C@H]1O[C@@H]1C(=O)N[C@H](C(=O)N1CCC[C@H]1C(=O)O)[C@@H](C)CC [CA-074]
Z-Phe-Arg-AMC substrate degradation (CatB and CatL; Calu-3 whole cell lysate): almost completely abolished
Z-Phe-Arg-AMC substrate degradation (CatB and CatL; Huh7-hACE2 whole cell lysate): almost completely abolished
Z-Phe-Arg-AMC substrate degradation (CatB and CatL; Vero E6 whole cell lysate): did not reduce substrate degradation

From article PMC10287183 (Antiviral Research, 2023)
